This is an account of results in US7893061B2, “Alkyne-substituted pyridone compounds and methods of use” (Amgen Inc., priority 2006, dated 2011).

Molecules are shown by their SMILES.

In the experiment the target is T1, c-KIT kinase enzyme (Homo sapiens, UniProt P10721).
T1 construct: cKIT (6.25 μM) (catalytic domain, N-terminal GST tagged, unphosphorylated)
T1 sequence (P10721 589-937 limits assumed): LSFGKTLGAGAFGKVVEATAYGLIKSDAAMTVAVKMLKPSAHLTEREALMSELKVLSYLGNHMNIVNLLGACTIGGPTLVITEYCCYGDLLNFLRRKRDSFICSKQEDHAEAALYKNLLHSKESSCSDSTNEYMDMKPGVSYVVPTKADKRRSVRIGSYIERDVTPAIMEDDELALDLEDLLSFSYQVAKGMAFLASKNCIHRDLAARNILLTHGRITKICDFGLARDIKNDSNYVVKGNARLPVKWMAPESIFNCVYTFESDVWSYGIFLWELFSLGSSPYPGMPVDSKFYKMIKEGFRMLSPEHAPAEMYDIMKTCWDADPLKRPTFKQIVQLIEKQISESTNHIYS
As to the kind of experiment: cKIT Homogeneous Time Resolved Fluorescent (HTRF) kinase assay. It counts as biochemical. The conditions noted are these: inhibition of the c-KIT kinase enzyme. The procedure:
cKIT-Homogeneous Time Resolved Fluorescent (HTRF) Kinase Assay:
The purpose of this assay is to measure the inhibition of cKIT enzyme activity (autophosphorylation and phosphorylation of substrate) by small molecule test compounds. The cKIT HTRF assay begins with cKIT-catalyzed phosphorylation of biotinylated peptide Her-2 (N-GGMEDIYFEFMGGKKK-C) (SEQ ID 001) in the presence of ATP. The cKIT enzyme reaction is comprised of 1 μL of compound in 100% DMSO, 15 μL of 2× substrate mix (50 μM ATP and 2 μM biotinylated Her-2) and 15 μL of 2× cKIT (6.25 μM) (catalytic domain, N-terminal GST tagged, unphosphorylated) in 4 mM DTT all diluted in enzyme buffer (25 mM HEPES pH 7.5, 12.5 mM NaCl, 50 mM MgCl, 0.05% BSA). The reaction incubates for 90 min at RT. 160 Microliters of detection mixture containing 0.47 μg/mL steptavidin allophycocyanin and 29.7 pM europylatedanti-phosphotyrosine Ab (PT66, Perkin Elmer) in HTRF buffer (100 mM Hepes pH 7.5, 100 mM NaCl, 0.1% BSA, 0.05% Tween 20) is then added to stop the reaction, by diluting out the enzyme as well as to enable quantitation of phosphorylated Her-2. After 3 h at RT, the detection reaction is read in a Packard Discovery™ (model BD1000) plate reader. The wells are excited with coherent […] light and the ratio of delayed ([…] post excitation) emissions at […] (native europium fluorescence) and 665 nm (europium fluorescence transferred to allophycocyanin—an index of substrate phosphorylation) is determined. The proportion of substrate phosphorylated in the kinase reaction in the presence of compound compared with that phosphorylated in the presence of DMSO vehicle alone (HI control) is calculated using the formula:
% control (POC)=(cpd−average LO)/(average HI−average LO)*100. Data (consisting of POC and inhibitor concentration in μM) is fitted to a 4-parameter equation (y=A+((B−A)/(1+((x/C)^D))), where A is the minimum y (POC) value, B is the maximum y (POC), C is the x (compound concentration) at the point of inflection and D is the slope factor) using a Levenburg-Marquardt non-linear regression algorithm.
In general terms: TR-FRET usually uses a lanthanide donor and a delayed reading to cut background.
Broadly, the IC50 is the concentration that inhibits the measured activity by half. Take `Cc1ccn(-c2cccc(C(F)(F)F)c2)c(=O)c1C#Cc1cnc(N)nc1` [Example 4, 3-((2-amino-5-pyrimidinyl)ethynyl)-4-methyl-1-(3-(trifluoromethyl)phenyl)-2(1H)-pyridinone]: the IC50 was at most 100 nM.
The value for `Cc1ccn(-c2ccc3c(c2)NCC3(C)C)c(=O)c1C#Cc1cnc(N)nc1` [Example 6, 3-((2-amino-5-pyrimidinyl)ethynyl)-1-(3,3-dimethyl-2,3-dihydro-1H-indol-6-yl)-4-methyl-2(1H)-pyridinone] was at most 10 nM; that for `Cc1ccc(-n2ccc(C)c(C#Cc3cnc(N)nc3)c2=O)cc1C` [Example 7, 3-((2-amino-5-pyrimidinyl)ethynyl)-1-(3,4-dimethylphenyl)-4-methyl-2(1H)-pyridinone] was at most 10 nM.
In turn, `CC(=O)N1CC(C)(C)c2ccc(-n3ccc(C)c(C#Cc4cnc(N)nc4)c3=O)cc21` [Example 8, 1-(1-acetyl-3,3-dimethyl-2,3-dihydro-1H-indol-6-yl)-3-((2-amino-5-pyrimidinyl)ethynyl)-4-methyl-2(1H)-pyridinone] showed an IC50 of at most 20 nM.
The value for `Cc1ccn(-c2ccc3c(c2)CCO3)c(=O)c1C#Cc1cnc(N)nc1` [Example 9, 3-((2-amino-5-pyrimidinyl)ethynyl)-1-(2,3-dihydro-1-benzofuran-5-yl)-4-methyl-2(1H)-pyridinone] was at most 100 nM; that for `Cc1ccn(-c2cccc(OC(F)(F)F)c2)c(=O)c1C#Cc1cnc(N)nc1` [Example 10, 3-((2-amino-5-pyrimidinyl)ethynyl)-4-methyl-1-(3-((trifluoromethyl)oxy)phenyl)-2(1H)-pyridinone] was at most 100 nM.
